Test system: 855422-203-R-J1-PDC complex spheroid viability
Test: Anticancer human tumor 855422-203-R-J1-PDC patient-derived bladder carcinoma cell line growth inhibition [POLQ]
Settings: for IC50: curve of first compound; for viability, T/C: stronger effect = lower value; active = viability on the fitted dose curve at most 10% of control; inactive = the rest
Method in brief: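 Complex spheroid viability model combining PDC tumour cells with endothelial (HUVEC) and MSC stromal cells. Novobiocin, ART-558 or RP6685 were tested singly and in combination with standard and investigational anticancer drugs. Each was titrated in half-log steps from near clinical Cmax, or from 10 microM where Cmax was unknown.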

[1] = second compound 0.0316 µM, first compound 0.0316 µM
[2] = second compound 0.0316 µM, first compound 0.1 µM
[3] = second compound 0.0316 µM, first compound 0.316 µM
[4] = second compound 0.0316 µM, first compound 1 µM
[5] = second compound 0.0316 µM, first compound 3.16 µM
[6] = second compound 0.0316 µM, first compound 10 µM
[7] = second compound 0.1 µM, first compound 0.0316 µM
[8] = second compound 0.1 µM, first compound 0.1 µM
[9] = second compound 0.1 µM, first compound 0.316 µM
[10] = second compound 0.1 µM, first compound 1 µM
[11] = second compound 0.1 µM, first compound 3.16 µM
[12] = second compound 0.1 µM, first compound 10 µM
[13] = second compound 0.316 µM, first compound 0.0316 µM
[14] = second compound 0.316 µM, first compound 0.1 µM
[15] = second compound 0.316 µM, first compound 0.316 µM
[16] = second compound 0.316 µM, first compound 1 µM
[17] = second compound 0.316 µM, first compound 3.16 µM
[18] = second compound 0.316 µM, first compound 10 µM
[19] = second compound 1 µM, first compound 0.0316 µM
[20] = second compound 1 µM, first compound 0.1 µM
[21] = second compound 1 µM, first compound 0.316 µM
[22] = second compound 1 µM, first compound 1 µM
[23] = second compound 1 µM, first compound 3.16 µM
[24] = second compound 1 µM, first compound 10 µM
[25] = second compound 3.16 µM, first compound 0.0316 µM
[26] = second compound 3.16 µM, first compound 0.1 µM
[27] = second compound 3.16 µM, first compound 0.316 µM
[28] = second compound 3.16 µM, first compound 1 µM
[29] = second compound 3.16 µM, first compound 3.16 µM
[30] = second compound 3.16 µM, first compound 10 µM
[31] = second compound 10 µM, first compound 0.0316 µM
[32] = second compound 10 µM, first compound 0.1 µM
[33] = second compound 10 µM, first compound 0.316 µM
[34] = second compound 10 µM, first compound 1 µM
[35] = second compound 10 µM, first compound 3.16 µM
[36] = second compound 10 µM, first compound 10 µM
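Note: spheroids exposed to compounds for seven days before readout.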

CCc1cc2c(N3CCc4c(cc(Cn5ccnc5)cc4-c4cn(C)nc4C(F)(F)F)C3=O)cc(C)nc2c(OC)n1 + Cc1cccc(N(C)C(=O)C2C(O)CCN2c2nc(C)cc(C(F)(F)F)c2C#N)c1
6.91 µM: IC50 (second compound 0.316 µM)
9.61 µM: IC50 (second compound 3.16 µM)
6.32 µM: IC50 (second compound 10 µM)
inactive: viability, T/C [1] 102% | viability, T/C [2] 134% | viability, T/C [3] 134% | viability, T/C [4] 72.5% | viability, T/C [5] 61.1% | viability, T/C [6] 35.2% | viability, T/C [7] 101% | viability, T/C [8] 144% | viability, T/C [9] 119% | viability, T/C [10] 91.1% | viability, T/C [11] 66.8% | viability, T/C [12] 39.1% | viability, T/C [13] 126% | viability, T/C [14] 147% | viability, T/C [15] 103% | viability, T/C [16] 111% | viability, T/C [17] 70.7% | viability, T/C [18] 39.4% | viability, T/C [19] 119% | viability, T/C [20] 125% | viability, T/C [21] 113% | viability, T/C [22] 81% | viability, T/C [23] 71.7% | viability, T/C [24] 42.4% | viability, T/C [25] 135% | viability, T/C [26] 128% | viability, T/C [27] 143% | viability, T/C [28] 95.3% | viability, T/C [29] 71.4% | viability, T/C [30] 46.1% | viability, T/C [31] 110% | viability, T/C [32] 132% | viability, T/C [33] 145% | viability, T/C [34] 98.2% | viability, T/C [35] 73.1% | viability, T/C [36] 36.1%
7.37 µM: IC50 (second compound 1 µM)
6.15 µM: IC50 (second compound 0.1 µM)
2.91 µM: IC50 (second compound 0.0316 µM)

CCc1cc2c(N3CCc4c(cc(Cn5ccnc5)cc4-c4cn(C)nc4C(F)(F)F)C3=O)ccnc2c(OC)n1 + Cc1cccc(N(C)C(=O)C2C(O)CCN2c2nc(C)cc(C(F)(F)F)c2C#N)c1
> 10 µM: IC50 (second compound 0.1 µM) | IC50 (second compound 0.316 µM) | IC50 (second compound 1 µM)
9.15 µM: IC50 (second compound 10 µM)
9.2 µM: IC50 (second compound 3.16 µM)
7.34 µM: IC50 (second compound 0.0316 µM)
inactive: viability, T/C [1] 111% | viability, T/C [2] 154% | viability, T/C [3] 110% | viability, T/C [4] 96.3% | viability, T/C [5] 70.9% | viability, T/C [6] 42.2% | viability, T/C [7] 99.9% | viability, T/C [8] 147% | viability, T/C [9] 113% | viability, T/C [10] 85.7% | viability, T/C [11] 79.6% | viability, T/C [12] 47.5% | viability, T/C [13] 102% | viability, T/C [14] 151% | viability, T/C [15] 107% | viability, T/C [16] 107% | viability, T/C [17] 80.4% | viability, T/C [18] 54.2% | viability, T/C [19] 125% | viability, T/C [20] 162% | viability, T/C [21] 110% | viability, T/C [22] 90% | viability, T/C [23] 79.7% | viability, T/C [24] 51.5% | viability, T/C [25] 138% | viability, T/C [26] 166% | viability, T/C [27] 103% | viability, T/C [28] 115% | viability, T/C [29] 74.7% | viability, T/C [30] 47.8% | viability, T/C [31] 116% | viability, T/C [32] 141% | viability, T/C [33] 158% | viability, T/C [34] 112% | viability, T/C [35] 88.3% | viability, T/C [36] 46.3%

COc1cc2cc(C(=O)CCC(=O)O)sc2cc1OC + Cc1cccc(N(C)C(=O)C2C(O)CCN2c2nc(C)cc(C(F)(F)F)c2C#N)c1
inactive: viability, T/C [1] 111% | viability, T/C [2] 118% | viability, T/C [3] 106% | viability, T/C [4] 94% | viability, T/C [5] 108% | viability, T/C [6] 113% | viability, T/C [7] 108% | viability, T/C [8] 118% | viability, T/C [9] 100% | viability, T/C [10] 108% | viability, T/C [11] 122% | viability, T/C [12] 125% | viability, T/C [13] 96.6% | viability, T/C [14] 149% | viability, T/C [15] 103% | viability, T/C [16] 95.5% | viability, T/C [17] 116% | viability, T/C [18] 102% | viability, T/C [19] 85.4% | viability, T/C [20] 131% | viability, T/C [21] 102% | viability, T/C [22] 129% | viability, T/C [23] 112% | viability, T/C [24] 89.2% | viability, T/C [25] 118% | viability, T/C [26] 122% | viability, T/C [27] 102% | viability, T/C [28] 126% | viability, T/C [29] 129% | viability, T/C [30] 120% | viability, T/C [31] 108% | viability, T/C [32] 127% | viability, T/C [33] 121% | viability, T/C [34] 114% | viability, T/C [35] 114% | viability, T/C [36] 114%
> 10 µM: IC50 (second compound 0.0316 µM) | IC50 (second compound 0.1 µM) | IC50 (second compound 0.316 µM) | IC50 (second compound 1 µM) | IC50 (second compound 3.16 µM) | IC50 (second compound 10 µM)

COc1ccc([C@@H](O)c2cc(-c3ncnc4cc(N5CCOCC5)ccc34)c(F)cc2Cl)nn1 + Cc1cccc(N(C)C(=O)C2C(O)CCN2c2nc(C)cc(C(F)(F)F)c2C#N)c1
2.37 µM: IC50 (second compound 10 µM)
5.16 µM: IC50 (second compound 0.1 µM)
5.34 µM: IC50 (second compound 0.0316 µM)
inactive: viability, T/C [1] 98.5% | viability, T/C [2] 109% | viability, T/C [3] 107% | viability, T/C [4] 84.7% | viability, T/C [5] 66.1% | viability, T/C [6] 32.7% | viability, T/C [7] 93.1% | viability, T/C [8] 101% | viability, T/C [9] 83.8% | viability, T/C [10] 87.7% | viability, T/C [11] 63.9% | viability, T/C [12] 30.1% | viability, T/C [13] 101% | viability, T/C [14] 111% | viability, T/C [15] 104% | viability, T/C [16] 82.3% | viability, T/C [17] 58.1% | viability, T/C [18] 31.2% | viability, T/C [19] 98.8% | viability, T/C [20] 97.2% | viability, T/C [21] 99.7% | viability, T/C [22] 86.5% | viability, T/C [23] 49% | viability, T/C [24] 26.3% | viability, T/C [25] 108% | viability, T/C [26] 106% | viability, T/C [27] 89% | viability, T/C [28] 79.5% | viability, T/C [29] 56.2% | viability, T/C [30] 29.6% | viability, T/C [31] 96.4% | viability, T/C [32] 105% | viability, T/C [33] 96.5% | viability, T/C [34] 66.8% | viability, T/C [35] 47% | viability, T/C [36] 28.8%
4.18 µM: IC50 (second compound 3.16 µM)
4.25 µM: IC50 (second compound 0.316 µM)
3.05 µM: IC50 (second compound 1 µM)

From PubChem BioAssay AID1963838 (Molecular Pharmacology Branch, DTP, NCI, 2024)
